Results: US5814634A, “Alkylenediamine derivative anti-ulcer drug and antibacterial drug” (Shiseido Co. Ltd., priority 1996, dated 1998)

Assays:
stress ulcer = assay: WIS: Restraint and Water Immersion Stress-Induced Ulcer Inhibition Test; assay type: in vivo, rat (male Crj:SD or Slc:SD); conditions: 100 mg/kg oral, rats, water immersion stress 7 hours
Summary of the method: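 Fasted male SD rats (6–7 weeks, 5–8 per group) received compound orally at 100 mg/kg in 0.3% CMC-Na or 0.05% Tween 80; 10 min later, restraint with water immersion (21 °C) for 7 h. Summed glandular erosion length gave the ulcer index; inhibition (%) versus vehicle controls.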

[1] = test system: gastric corpus mucosa cells; conditions: rabbit, gastric mucosal cells, 4 h, 100 µM
[2] = test system: isolated gastric fundic gland; assay: CAP: Acid Secretion Inhibition Test In Vitro ([14C]-aminopyrine uptake); assay type: cell-based, rabbit (male Japanese White); conditions: Oryctolagus cuniculus, 40 min, read-out: CAP: acid secretion inhibitory rate
Experimental: With respect to the gastric juice volume (VOL) and the total acid output (TAO), the effects obtained when 100 mg/kg of the sample compound had been administered were expressed as their respective inhibitory rates (%) as follows: [formula] CAP: Acid Secretion Inhibition Test In Vitro i) Meaning
The acid secretion inhibitory activity in a cell level is studied. It can also be used for studying the mechanism of the effect.
ii-a) Preparation of isolated gastric fundus gland suspension
First, an isolated gastric fundic gland sample was prepared. […] Immediately thereafter, the stomach was removed and, after its pyloric and cardiac antrum were severed, incised along its greater curvature into two sheets. The gastric contents adhering to the mucosal surface was washed out with ice-cooled PBS (-) and then carefully washed therein. The gastric wall was spread on a cork board with its mucosal surface facing up and the feed and mucus thereon were completely removed with sterile gauze. The mucosa was separated therefrom by a spatula and then collected in ice-cooled PBS (-). After being washed twice with PBS (-), the mucosa was minced into 2-3 mm^3 pieces by scissors. These pieces were further washed twice with a nutrient solution. The nutrient solution comprises 132.4 mM of NaCl, 5.4 mM of KCl, 5 mM of Na2 HPO4.12H2 O, 1 mM of NaH2 PO4.2H2 O, 1.2 mM of MgSO4, 1 mM of CaCl2, 25 mM of HEPES, 2 mg/ml of glucose, and 1 mg/ml of BSA. Into 70 ml of the nutrient solution containing 1 mg/ml of collagenase, minced mucosal pieces were dispersed and intensely stirred in a conical flask with a stirrer at 37° C. for 40 to 60 minutes. During this period, 100% O2 was sprayed on the nutrient solution surface and the pH was appropriately measured such that it was immediately adjusted to pH 7.4, when the value was therebelow, with a base. The nutrient solution was added to the reaction solution so as to attain the total amount of about 200 ml. After being filtered through a mesh, the suspension was divisionally introduced into 50 ml centrifuge tubes and left for 15 minutes such that gastric fundic gland was deposited. The supernatant was repeatedly removed by an aspirator, dispersed in the nutrient solution, and then left such that the gastric fundic gland was washed three times. At this time, without using a pipette, the suspension was alternately introduced into two centrifuge tubes so as to effect dispersion. The number of cells was counted under microscope and adjusted to 1.6×10^6 cells/ml.
ii-b) [^14 C]-aminopyrine uptake test
Then, [^14 C]-aminopyrine uptake test was performed. After an Eppendorf tube was weighed, 10 μl (final concentration: 10^-5 M) of histamine dissolved in the above-mentioned nutrient solution, 10 μl (final concentration: 10^-5 M) of the test compound dissolved in DMSO, and 10 μl (final concentration: 0.05 μCi/ml) of [^14 C]-aminopyrine diluted with the nutrient solution were introduced therein and then 970 μl of the isolated gastric fundic gland suspension prepared above was added thereto. Subsequently, this mixture was shaken at 37° C. for 40 minutes at 125 cycles/minute. After being centrifuged for 30 minutes, 200 μl of its supernatant was collected into a mini-vial, while the rest was removed by an aspirator. The gland pellet was completely dried as the tube with its lid being opened was kept for one night in a drying oven at 80° C. and then the lid was closed and the weight was determined at room temperature. Then 100 μl of 1N KOH was added thereto and the tube with its lid being closed was treated at 60° C. for 1 to 2 hours so as to dissolve the pellet. Then, the contents thereof were transferred to a mini-vial. Into the mini-vial containing the supernatant or gland pellet, 4 ml of Atomlite™ was added and then the radioactivity was measured by a liquid scintillation counter. […]

[3] = MTT: Cell Damaging and Protecting Effect Test; conditions: rabbit, gastric mucosal cells

**Q.** Which “WIS: ulcer formation inhibitory rate” value (stress ulcer) does the source give for CC(C)=CCCC(C)=CCOc1ccc(C(=O)NCCN2CC(C)OC(C)C2)cc1 (stereo not shown) [Example 34] here?
**A.** 38%

**Q.** And the “MTT: cell damaging rate” value [1]?
**A.** 14%

**Q.** Which inhibition at 10 µM [2] does the source give for CC(C)=CCC/C(C)=C/COc1ccc(C(=O)NCCN2CCN(CC(=O)N3CCCC3)CC2)cc1 [Example 55] here?
**A.** 99.2%

**Q.** What about the cytotoxicity at 4 h, 100 µM [3] of the same compound?
**A.** 27%
